{"source": "patent US8715648B2", "about": "“Method for treating obesity with anti-obesity formulations and omega 3 fatty acids for the reduction of body weight in cardiovascular disease patients (CVD) and diabetics” (Pivotal Therapeutics Inc., priority 2011, dated 2014)", "origin": "cited, not measured here", "biological_target": "CB1R (Homo sapiens, UniProt P21554)", "sequence (P21554 whole entry)": "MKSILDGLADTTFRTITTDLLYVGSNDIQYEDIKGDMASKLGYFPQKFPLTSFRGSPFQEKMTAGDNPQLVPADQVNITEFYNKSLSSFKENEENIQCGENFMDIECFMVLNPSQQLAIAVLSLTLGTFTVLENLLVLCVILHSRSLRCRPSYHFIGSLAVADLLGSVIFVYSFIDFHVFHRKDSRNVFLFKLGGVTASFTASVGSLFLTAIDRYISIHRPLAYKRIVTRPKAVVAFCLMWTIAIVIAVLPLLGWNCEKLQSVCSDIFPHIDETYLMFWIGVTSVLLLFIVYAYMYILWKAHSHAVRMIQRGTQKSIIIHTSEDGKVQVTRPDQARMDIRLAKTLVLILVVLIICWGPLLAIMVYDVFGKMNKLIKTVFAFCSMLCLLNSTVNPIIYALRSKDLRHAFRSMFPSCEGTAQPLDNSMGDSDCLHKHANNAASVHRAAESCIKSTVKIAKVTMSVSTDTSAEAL", "settings": "in vivo", "data": [{"smiles": "CCNC1(C(N)=O)CCN(c2ncnc3c2nc(-c2ccccc2Cl)n3-c2ccc(Cl)cc2)CC1.Cl", "note": "[CP-945,598]", "values": [{"measurement": "Reason for failure of phase III clinical trials", "result": "psychiatric adverse reactions, including severe depression and anxiety"}]}]}
